# Active and inactive are the calls of the source.
# What was measured:
# [1] = Luminescence Cell-Based Dose Confirmation HTS to Identify Activators of 5'UTR Stem-Loop Driven Alpha-Synuclein mRNA Translation in H4 Neuroglioblastoma Cells. [Related pubchem assays: 1829 (Project Summary), 1814 (Primary HTS)]; assay type: functional
# [2] = Luminescence Cell-Based Dose Response HTS to Identify Activators of Luciferase Translation or Activity in H4 […] Cells. [Related pubchem assays: 1829 (Project Summary), 1814 (Primary HTS)]; assay type: functional
# H4 = assay: Luminescence Cell-Based Dose Response HTS to Identify Activators of 5'UTR Stem-Loop Driven Prion Protein mRNA Translation in H4 Neuroglioblastoma Cells. [Related pubchem assays: 1829 (Project Summary), 1814 (Primary HTS)]; assay type: functional; conditions: Homo sapiens
# Vero [3] = assay: mammalian cell viability reduction – secondary assay, cytotoxicity control for West Nile virus antiviral project, dose response (AID 1650); assay type: functional; conditions: Chlorocebus sabaeus
# Vero [4] = assay: inhibition of WNV-induced cytopathic effect – cell-based, CPE readout (AID 1621); assay type: functional; conditions: Chlorocebus sabaeus
# [5] = biological target: T1, Ubiquitin-conjugating enzyme E2 N (Homo sapiens, UniProt P61088); assay type: functional;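 also: Dose-response confirmation in a TR-FRET assay detecting UBC13-driven polyubiquitin chain formation, inhibition measured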
# T1 sequence (P61088 whole entry): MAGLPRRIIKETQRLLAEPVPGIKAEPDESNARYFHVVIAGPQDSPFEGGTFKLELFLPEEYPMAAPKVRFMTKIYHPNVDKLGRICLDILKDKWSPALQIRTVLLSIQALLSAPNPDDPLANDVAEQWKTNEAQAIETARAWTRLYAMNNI
# [6] = biological target: T2, Microphthalmia-associated transcription factor (Homo sapiens, UniProt O75030); assay: reducers of TRPM1 reporter luminescence, concentration series – cell-based, SK-MEL-5, cherry-picked, set 3, MITF inhibitor project, dose response (AID 493073); assay type: functional;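 also: SK-MEL-5 melanoma cells with luciferase driven by the MITF target TRPM1 promoter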
# T2 sequence (O75030 whole entry): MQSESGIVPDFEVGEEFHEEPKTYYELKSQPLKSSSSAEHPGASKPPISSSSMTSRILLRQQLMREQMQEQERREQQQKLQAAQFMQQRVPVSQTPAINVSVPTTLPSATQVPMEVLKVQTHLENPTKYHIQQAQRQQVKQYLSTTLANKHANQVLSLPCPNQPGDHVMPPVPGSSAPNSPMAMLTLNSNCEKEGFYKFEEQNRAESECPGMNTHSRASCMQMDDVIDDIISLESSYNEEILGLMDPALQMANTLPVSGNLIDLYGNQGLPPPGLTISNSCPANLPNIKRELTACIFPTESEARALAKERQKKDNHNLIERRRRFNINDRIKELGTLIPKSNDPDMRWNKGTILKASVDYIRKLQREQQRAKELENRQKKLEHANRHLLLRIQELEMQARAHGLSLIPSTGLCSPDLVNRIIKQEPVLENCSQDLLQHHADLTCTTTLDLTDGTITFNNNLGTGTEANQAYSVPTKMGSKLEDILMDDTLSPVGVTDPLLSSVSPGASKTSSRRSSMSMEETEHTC
# [7] = cytotoxicity in MITF-independent A375 cells – cell-based, CellTiter-Glo luminescence, dry powder, set 4, counter-screen for MITF inhibitor project, dose response (AID 624364); assay type: functional; conditions: A-375;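 also: A375 melanoma cells are MITF independent so this is a counter screen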
# [8] = viability loss in MITF-independent A375 cells – cell-based, CellTiter-Glo luminescence, dry powder, set 2, counter-screen for MITF inhibitor project, dose response (AID 624489); assay type: functional; conditions: A-375;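 also: actives are compounds lowering A375 viability meaning general cytotoxicity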
# [9] = biological target: Mitogen-activated protein kinase 10 (Homo sapiens, UniProt P53779); assay: Dose response biochemical screening assay for inhibitors of c-Jun N-Terminal Kinase 3 (JNK3). [Related pubchem assays: 746 ]
# Sequence of Mitogen-activated protein kinase 10 (P53779 whole entry): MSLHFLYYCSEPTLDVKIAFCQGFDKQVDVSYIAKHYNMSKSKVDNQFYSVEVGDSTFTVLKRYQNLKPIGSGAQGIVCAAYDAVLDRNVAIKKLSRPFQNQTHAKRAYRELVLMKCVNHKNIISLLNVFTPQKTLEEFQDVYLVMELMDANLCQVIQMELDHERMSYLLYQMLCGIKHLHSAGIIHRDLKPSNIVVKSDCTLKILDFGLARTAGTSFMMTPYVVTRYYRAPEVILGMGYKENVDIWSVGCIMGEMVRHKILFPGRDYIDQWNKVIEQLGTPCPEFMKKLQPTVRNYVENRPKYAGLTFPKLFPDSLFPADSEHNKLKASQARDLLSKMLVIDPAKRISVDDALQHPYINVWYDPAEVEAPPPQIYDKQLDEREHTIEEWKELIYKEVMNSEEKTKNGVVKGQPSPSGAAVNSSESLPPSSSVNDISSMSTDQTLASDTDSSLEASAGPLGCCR
# [10] = viability inhibitors of stage V gametocytes – luminescence, dose response (AID 1117278); assay type: functional, cell-based;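 also: gametocytes exposed to compound for 24 hours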
# [11] = viability loss in human Jurkat cells – cell-based, luminescence, cytotoxicity control for P. falciparum gametocyte viability project, dose response (AID 1117277); assay type: functional;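 also: potency reflects loss of cellular ATP meaning fewer viable cells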
# [12] = viability loss in THP-1 monocytes – THP-1 cells, cytotoxicity control for Vif-APOBEC3G degradation inhibitor project, dose response (AID 1117359); assay type: functional; conditions: THP-1
# [13] = growth inhibition of yeast DHODH-expressing 3D7 parasites – SYBR Green, dry powder samples, dose response (AID 1159570); assay type: functional, cell-based;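 also: parasite growth measured after 72 hours of compound exposure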
# [14] = toxicity to human HepG2 hepatoma cells – cell-based, plate reader, dry powder samples, cytotoxicity control, dose response (AID 1159569); assay type: functional;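 also: inhibitor potency with signal falling toward the positive control level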
# [15] = P. falciparum Dd2 growth inhibitors, dose response, SYBR Green, cherry-picked samples (AID 1159567); assay type: functional, cell-based
# [16] = Dd2 malaria parasite growth inhibition potency – SYBR Green, dry powder samples, dose response (AID 1159566); assay type: functional, cell-based;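 also: potency for growth inhibition with lower SYBR green DNA signal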
# [17] = toxicity to human hepatoma HepG2 cells – cell-based, cherry-picked samples, cytotoxicity control, dose response (AID 1159577); assay type: functional
# [18] = Plasmodium falciparum Dd2 Sybr green parasite growth Measured in Cell-Based and Microorganism Combination System Using Plate Reader - 2153-01_Inhibitor_Dose_DryPowder_Activity_Set3.; assay type: functional
# [19] = growth inhibition of PfATP4-mutant resistant parasites – NITD609-resistant line, SYBR Green, dry powder, dose response (AID 1159571); assay type: functional, cell-based;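 also: parasites synchronized at ring stage by sorbitol before testing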
# Protein Tat = Protein Tat (Human immunodeficiency virus type 1 group M subtype B (isolate HXB2)(HIV-1), UniProt P04608); assay type: functional;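 also: tat binding to TAR RNA read out by fluorescence polarization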
# Sequence of Protein Tat (P04608 whole entry): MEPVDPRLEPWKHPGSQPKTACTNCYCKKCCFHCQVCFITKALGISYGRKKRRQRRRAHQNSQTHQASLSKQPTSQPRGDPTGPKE
# Paired box protein Pax-8 = Paired box protein Pax-8 (Homo sapiens, UniProt Q06710); assay: PAX8 transcriptional activity inhibition in RMG-I – RMG-I cells, luciferase, cherry-pick, dose response (AID 687027); assay type: functional, cell-based;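 also: luciferase reporter driven by Pax8 target thyroperoxidase promoter measured by SteadyGlo luminescence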
# Sequence of Paired box protein Pax-8 (Q06710 whole entry): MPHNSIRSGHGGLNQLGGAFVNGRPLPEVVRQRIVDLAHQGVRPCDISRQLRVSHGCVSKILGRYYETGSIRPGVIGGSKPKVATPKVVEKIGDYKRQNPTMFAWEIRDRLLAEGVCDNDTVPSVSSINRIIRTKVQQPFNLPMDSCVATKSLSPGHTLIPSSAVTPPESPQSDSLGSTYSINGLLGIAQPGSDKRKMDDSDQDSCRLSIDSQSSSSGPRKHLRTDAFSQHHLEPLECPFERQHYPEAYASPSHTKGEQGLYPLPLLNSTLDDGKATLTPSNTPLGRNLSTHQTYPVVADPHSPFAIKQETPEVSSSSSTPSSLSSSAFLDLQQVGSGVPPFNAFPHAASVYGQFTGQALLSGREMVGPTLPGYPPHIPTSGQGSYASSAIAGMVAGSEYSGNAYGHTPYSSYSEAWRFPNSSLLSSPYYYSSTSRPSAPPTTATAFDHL
# [20] = toxicity toward immortalized ovarian surface epithelium – cell-based, plate reader, dry powder samples, cytotoxicity control for PAX8 inhibitor project, dose response (AID 743045); assay type: functional
# [21] = OVCAR-3 cell viability loss – plate reader, dry powder samples, PAX8 inhibitor project, dose response (AID 743044); assay type: functional, cell-based
# [22] = IGROV1 cell killing – plate reader, dry powder samples, PAX8 inhibitor project, dose response (AID 743043); assay type: functional, cell-based; conditions: IGROV-1
# [23] = general cell-killing toxicity readout – plate reader, dry powder samples, cytotoxicity control for PAX8 inhibitor project, dose response (AID 743021); assay type: functional, cell-based
# [24] = OVCAR8 cell viability loss – plate reader, dry powder samples, PAX8 project, dose response (AID 743197); assay type: functional, cell-based; conditions: OVCAR-8
structure (smiles),measurement,setting,value
CCCCN(CC)CCCNC(=O)c1cc2c(=O)n(CC)c3ccccc3c2s1,EC50,[1],73.6 µM (active)
same,EC50,[2],13.6 µM (active)
same,EC50,H4,11.7 µM (active)
same,CC50,Vero [3],24.3 µM (active)
same,IC50,Vero [4],22.7 µM (active)
same,IC50,[5],> 20 µM (inactive)
same,AC50,[6],21.6 µM (active)
CC(=O)NC1=C(c2cccc(Cl)c2)C(=O)c2ccccc2C1=O,AC50,[7],14.4 µM (active)
same,AC50,[8],7.22 µM (active)
O=C(NC1=C(c2ccc(OC(F)(F)F)cc2)C(=O)c2ccccc2C1=O)c1ccc(Br)cc1,AC50,[7],41.1 µM (active)
same,AC50,[8],36.5 µM (active)
O=C(c1cccc2c1-c1ccccc1/C2=N/O)N1CCCCC1,IC50,[9],40.7 µM (not active)
Cc1ccc(C)c(N2CCN(C(=O)Cc3ccc(-n4c(=O)[nH]c5ccsc5c4=O)cc3)CC2)c1,IC50,[10],> 109 µM (inactive)
same,IC50,[11],> 83.2 µM (inactive)
CC12CCC(C(=O)Nc3cc(F)ccc3F)(CC1=O)C2(C)C (stereo not given),CC50,[12],> 40 µM (active)
COc1ccc(-c2ccc([C@H]3[C@@H](C#N)N(C(=O)NC4CCCC4)[C@@H]3CO)cc2)cc1,AC50,[13],5.29 µM (active)
same,AC50,[14],81.4 µM (active)
same,AC50,[15],< 0.3 µM (active)
same,AC50,[16],0.23 µM (active)
same,AC50,[17],> 39 µM (inactive)
same,AC50,[18],0.208 µM (active)
same,AC50,[19],0.248 µM (active)
Cc1occc1-c1nnc(SCC(=O)N2CCN(c3ccccc3)CC2)n1C,IC50,Protein Tat,> 100 µM (active)
CCN1CCN(CCCNC(=O)C2CCCN(c3nc4c(C)cc(C)cc4s3)C2)CC1 (stereo not given),IC50,Vero [4],24.8 µM (active)
COc1ccc(NC(=O)N2C[C@@H]3N[C@H](C2)[C@@H]3c2ccc(-c3ccc(OC)cc3)cc2)cc1,AC50,Paired box protein Pax-8,13.7 µM (active)
same,AC50,[20],23.3 µM (active)
same,AC50,[21],46.6 µM (active)
same,AC50,[22],26.6 µM (active)
same,AC50,[23],32.5 µM (active)
same,AC50,[24],48.5 µM (active)

# — ChEMBL document CHEMBL1201862, “PubChem BioAssay data set” (2004)
